Assay in all cases: relative viability (nuclei count vs DMSO), 5 days (fraction); higher = more cells survive
Compound in the assay “Metformin + Luminespib”: CN(C)C(=N)NC(=N)N [Metformin] + CCNC(=O)c1noc(-c2cc(C(C)C)c(O)cc2O)c1-c1ccc(CN2CCOCC2)cc1 [Luminespib] (partner 0.01 µM)
The method, boiled down:
(§1)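 Relative viability is defined as nuclei in treated wells over nuclei in vehicle wells. Duplicate plates were run and medians reported. Lung cancer cell lines in 1536-well plates were dosed by pin tool one day after seeding, with one drug or with a fixed anchor-drug dose plus five library-drug doses (not always all listed) in √10 steps, and nuclei were counted after 5 days.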

Compound in the assay “Metformin + Crizotinib”: CN(C)C(=N)NC(=N)N [Metformin] + C[C@@H](Oc1cc(-c2cnn(C3CCNCC3)c2)cnc1N)c1c(Cl)ccc(F)c1Cl [Crizotinib] (partner 1 µM)
A digest of the protocol:
as §1

Compound in the assay “Metformin + Pemetrexed”: CN(C)C(=N)NC(=N)N [Metformin] + Nc1nc2[nH]cc(CCc3ccc(C(=O)N[C@@H](CCC(=O)O)C(=O)O)cc3)c2c(=O)[nH]1 [Pemetrexed] (partner 0.2 µM)
A digest of the protocol:
as §1

Compound in the assay “Apatinib + OSI-027”: N#CC1(c2ccc(NC(=O)c3cccnc3NCc3ccncc3)cc2)CCCC1 [Apatinib] + COc1cccc2cc(-c3nc([C@H]4CC[C@H](C(=O)O)CC4)n4ncnc(N)c34)[nH]c12 [OSI-027] (partner 0.5 µM)
The method, boiled down:
as §1

As to NCI-H1975, the relative viability was found to be 0.156 in the assay with Metformin + Luminespib (first compound 10 µM); 0.122 with Metformin + Luminespib (first compound 31.62 µM); 0.363 in the assay with Metformin + Luminespib (first compound 100 µM); 0.335 with Metformin + Luminespib (first compound 316.23 µM); 0.336 in the assay with Metformin + Luminespib (first compound 1000 µM); 1.09 with Metformin + Crizotinib (first compound 10 µM). Further, the relative viability stood at 1.12 with Metformin + Crizotinib (first compound 31.62 µM); 1.21 in the assay with Metformin + Crizotinib (first compound 100 µM); 1.06 in the assay with Metformin + Crizotinib (first compound 316.23 µM); 1.27 with Metformin + Crizotinib (first compound 1000 µM); 0.277 with Metformin + Pemetrexed (first compound 10 µM); 0.296 with Metformin + Pemetrexed (first compound 31.62 µM). The relative viability was 0.317 with Metformin + Pemetrexed (first compound 100 µM); 0.269 in the assay with Metformin + Pemetrexed (first compound 316.23 µM); 0.289 with Metformin + Pemetrexed (first compound 1000 µM); 0.718 with Apatinib + OSI-027 (first compound 0.08 µM); 0.901 with Apatinib + OSI-027 (first compound 0.253 µM); 0.55 with Apatinib + OSI-027 (first compound 0.8 µM). In addition, the relative viability in the assay with Apatinib + OSI-027 (first compound 2.53 µM) worked out at 0.418; in the assay with Apatinib + OSI-027 (first compound 8 µM) it was 0.42.

In the case of NCI-H1993, the relative viability with Metformin + Luminespib (first compound 10 µM) stood at 0.994; in the assay with Metformin + Luminespib (first compound 31.62 µM) it was 1.09; in the assay with Metformin + Luminespib (first compound 100 µM) it was 0.713; with Metformin + Luminespib (first compound 316.23 µM), 0.856; with Metformin + Luminespib (first compound 1000 µM) it was 0.934; in the assay with Metformin + Crizotinib (first compound 10 µM), 1.12. Moreover, the relative viability amounted to 0.849 with Metformin + Crizotinib (first compound 31.62 µM); 1.22 in the assay with Metformin + Crizotinib (first compound 100 µM); 1.06 in the assay with Metformin + Crizotinib (first compound 316.23 µM); 1.31 with Metformin + Crizotinib (first compound 1000 µM); 0.521 with Metformin + Pemetrexed (first compound 10 µM); 0.507 with Metformin + Pemetrexed (first compound 31.62 µM). Besides, the relative viability with Metformin + Pemetrexed (first compound 100 µM) was found to be 0.588; with Metformin + Pemetrexed (first compound 316.23 µM) it was 0.558; with Metformin + Pemetrexed (first compound 1000 µM), 0.633; with Apatinib + OSI-027 (first compound 0.08 µM), 0.627; with Apatinib + OSI-027 (first compound 0.253 µM) it was 0.596; in the assay with Apatinib + OSI-027 (first compound 0.8 µM), 0.549. The relative viability with Apatinib + OSI-027 (first compound 2.53 µM) was 0.49; in the assay with Apatinib + OSI-027 (first compound 8 µM) it was 0.494.

Turning to NCI-H2009, the relative viability was 1.07 with Metformin + Luminespib (first compound 10 µM); 1.09 with Metformin + Luminespib (first compound 31.62 µM); 1.08 in the assay with Metformin + Luminespib (first compound 100 µM); 1.02 with Metformin + Luminespib (first compound 316.23 µM); 0.93 with Metformin + Luminespib (first compound 1000 µM); 1.06 with Metformin + Crizotinib (first compound 10 µM). Moreover, the relative viability in the assay with Metformin + Crizotinib (first compound 31.62 µM) was determined as 1.07; with Metformin + Crizotinib (first compound 100 µM) it was 1.11; with Metformin + Crizotinib (first compound 316.23 µM), 1.04; with Metformin + Crizotinib (first compound 1000 µM), 0.878; with Metformin + Pemetrexed (first compound 10 µM) it was 0.874; in the assay with Metformin + Pemetrexed (first compound 31.62 µM), 0.943. For the same cell line, the relative viability amounted to 0.891 with Metformin + Pemetrexed (first compound 100 µM); 0.814 with Metformin + Pemetrexed (first compound 316.23 µM); 0.891 with Metformin + Pemetrexed (first compound 1000 µM); 0.796 in the assay with Apatinib + OSI-027 (first compound 0.08 µM); 0.617 with Apatinib + OSI-027 (first compound 0.253 µM); 0.536 with Apatinib + OSI-027 (first compound 0.8 µM). Further, the relative viability in the assay with Apatinib + OSI-027 (first compound 2.53 µM) stood at 0.337; in the assay with Apatinib + OSI-027 (first compound 8 µM), 0.193.

As for NCI-H2023, the relative viability in the assay with Metformin + Luminespib (first compound 10 µM) was 0.649; with Metformin + Luminespib (first compound 31.62 µM), 0.725; in the assay with Metformin + Luminespib (first compound 100 µM) it was 0.711; with Metformin + Luminespib (first compound 316.23 µM) it was 0.67; with Metformin + Luminespib (first compound 1000 µM), 0.676; with Metformin + Crizotinib (first compound 31.62 µM), 0.767. For the same cell line, the relative viability with Metformin + Crizotinib (first compound 100 µM) is 0.706; with Metformin + Crizotinib (first compound 1000 µM), 0.512; in the assay with Metformin + Pemetrexed (first compound 10 µM), 0.185; with Metformin + Pemetrexed (first compound 31.62 µM), 0.219; in the assay with Metformin + Pemetrexed (first compound 100 µM) it was 0.226; with Metformin + Pemetrexed (first compound 316.23 µM), 0.187. The relative viability with Metformin + Pemetrexed (first compound 1000 µM) came out at 0.205; in the assay with Apatinib + OSI-027 (first compound 0.08 µM), 0.499; with Apatinib + OSI-027 (first compound 0.253 µM), 0.42; with Apatinib + OSI-027 (first compound 0.8 µM), 0.342; with Apatinib + OSI-027 (first compound 2.53 µM), 0.296; in the assay with Apatinib + OSI-027 (first compound 8 µM), 0.207.

Regarding NCI-H2085, the relative viability with Metformin + Luminespib (first compound 10 µM) stood at 0.429; in the assay with Metformin + Luminespib (first compound 31.62 µM), 0.441; in the assay with Metformin + Luminespib (first compound 100 µM), 0.404; with Metformin + Luminespib (first compound 316.23 µM), 0.336; with Metformin + Luminespib (first compound 1000 µM) it was 0.475; in the assay with Metformin + Crizotinib (first compound 10 µM), 0.952. In addition, the relative viability in the assay with Metformin + Crizotinib (first compound 31.62 µM) worked out at 0.694; with Metformin + Crizotinib (first compound 100 µM), 0.947; with Metformin + Crizotinib (first compound 316.23 µM), 0.721; with Metformin + Crizotinib (first compound 1000 µM) it was 0.879; with Metformin + Pemetrexed (first compound 10 µM) it was 0.917; with Metformin + Pemetrexed (first compound 31.62 µM), 0.815. Also, the relative viability was 0.904 in the assay with Metformin + Pemetrexed (first compound 100 µM); 0.881 in the assay with Metformin + Pemetrexed (first compound 316.23 µM); 0.955 with Metformin + Pemetrexed (first compound 1000 µM); 0.858 with Apatinib + OSI-027 (first compound 0.08 µM); 0.706 with Apatinib + OSI-027 (first compound 0.253 µM); 0.767 in the assay with Apatinib + OSI-027 (first compound 0.8 µM). Further, the relative viability was found to be 0.612 with Apatinib + OSI-027 (first compound 2.53 µM) and 0.549 with Apatinib + OSI-027 (first compound 8 µM).

Regarding NCI-H2087, the relative viability with Metformin + Luminespib (first compound 31.62 µM) turned out to be 0.293; with Metformin + Luminespib (first compound 100 µM), 0.225; with Metformin + Luminespib (first compound 316.23 µM), 0.223; in the assay with Metformin + Luminespib (first compound 1000 µM) it was 0.157; in the assay with Metformin + Crizotinib (first compound 10 µM), 0.813; with Metformin + Crizotinib (first compound 31.62 µM), 0.726. Also, the relative viability was 0.682 with Metformin + Crizotinib (first compound 100 µM); 0.849 with Metformin + Crizotinib (first compound 316.23 µM); 0.638 with Metformin + Crizotinib (first compound 1000 µM); 0.622 with Metformin + Pemetrexed (first compound 10 µM); 0.702 with Metformin + Pemetrexed (first compound 31.62 µM); 0.615 with Metformin + Pemetrexed (first compound 100 µM). Besides, the relative viability with Metformin + Pemetrexed (first compound 316.23 µM) was determined as 0.536; with Metformin + Pemetrexed (first compound 1000 µM), 0.614; with Apatinib + OSI-027 (first compound 0.08 µM) it was 0.607; with Apatinib + OSI-027 (first compound 0.253 µM) it was 0.458; in the assay with Apatinib + OSI-027 (first compound 0.8 µM), 0.468; with Apatinib + OSI-027 (first compound 2.53 µM), 0.492. Moreover, the relative viability with Apatinib + OSI-027 (first compound 8 µM) amounted to 0.426.

Take NCI-H2126: the relative viability came to 0.647 with Metformin + Luminespib (first compound 10 µM); 0.956 with Metformin + Luminespib (first compound 31.62 µM); 0.803 in the assay with Metformin + Luminespib (first compound 100 µM); 0.571 in the assay with Metformin + Luminespib (first compound 316.23 µM); 0.496 with Metformin + Luminespib (first compound 1000 µM); 0.863 with Metformin + Crizotinib (first compound 10 µM). In addition, the relative viability came out at 0.946 in the assay with Metformin + Crizotinib (first compound 31.62 µM); 0.957 in the assay with Metformin + Crizotinib (first compound 100 µM); 0.908 with Metformin + Crizotinib (first compound 316.23 µM); 0.956 in the assay with Metformin + Crizotinib (first compound 1000 µM); 0.648 with Metformin + Pemetrexed (first compound 10 µM); 0.658 with Metformin + Pemetrexed (first compound 31.62 µM). The relative viability with Metformin + Pemetrexed (first compound 100 µM) stood at 0.672; with Metformin + Pemetrexed (first compound 316.23 µM), 0.579; with Metformin + Pemetrexed (first compound 1000 µM), 0.71; with Apatinib + OSI-027 (first compound 0.08 µM), 0.816; with Apatinib + OSI-027 (first compound 0.253 µM), 0.641; with Apatinib + OSI-027 (first compound 0.8 µM) it was 0.666. Moreover, the relative viability turned out to be 0.585 with Apatinib + OSI-027 (first compound 2.53 µM) and 0.664 with Apatinib + OSI-027 (first compound 8 µM).
